Test system: Hep G2 cells
Experiment: Cellstain double staining (Live/Dead, calcein AM / propidium iodide) viability after freeze-drying and rehydration
Type: cell-based, human
Conditions: 24 h trehalose incubation, same lyoprotectants, liquid nitrogen freezing; with vs without GrowDex
Excerpt: One method to evaluate the cell membrane integrity is enzyme activity assays combined with nuclei staining. Calcein AM (acetoxy methyl) ester and propidium iodide are suitable for viability assessment of different microbes. Calcein AM is itself a non-fluorescent and cell membrane permeable molecule, but undergoes an esterase reaction when in cytosol if correct enzymes are available and transforms into calcein, which is a fluorescent molecule. This way, the fluorescent cells can be visually observed with fluorescence microscopy or a plate reader.
Therefore, only necrotic cells are affected, whereas apoptotic and healthy cells not. Once in the cytosol, the PI binds to any available DNA and RNA, including the DNA in nucleus. When excited with 535 nm light, an emission of 617 nm can be observed on the areas of dead cells.
Three lyoprotectants were chosen for testing with GrowDex®. First, the cells were cultivated regularly for 4 days either in 2D or 3D with 0.8% (w/w) of GrowDex®, and then the medium was changed. […] Then, the systems were freeze-dried and rehydrated and evaluated for viability with Cellstain double staining and fluorescence microscopy. […]
Autofluorescence was ruled out by killed control samples that were stained and imaged at the same time showing no green fluorescence in identical settings. […]

OC[C@H]1O[C@H](O[C@H]2O[C@H](CO)[C@@H](O)[C@H](O)[C@H]2O)[C@H](O)[C@@H](O)[C@@H]1O [trehalose, α-D-glucopyranosyl-(1→1)-α-D-glucopyranoside]
Live/dead dual staining outcome after freeze-drying and rehydration: the cells did not survive

Reference: patent US11969505B2, “Method for freeze-drying cells in a hydrogel comprising nanofibrillar cellulose and freeze-dried cells in an aerogel comprising nanofibrillar cellulose” (UPM-KYMMENE CORPORATION, priority 2016, dated 2024)
